# Numbers after ± are expanded uncertainties.
# Key:
# [1] = 101.3 kPa, Liquid
# [2] = xn = mol fraction of the nth substance listed; settings: 101 kPa, Liquid
smiles,measurement,setting,value
CO [methanol],mass density,[1]; 288.15 K,796.406 ± 0.47 kg/m3
same,mass density,[1]; 298.15 K,786.987 ± 0.49 kg/m3
same,mass density,[1]; 313.15 K,772.74 ± 0.51 kg/m3
same,mass density,[1]; 328.15 K,758.201 ± 0.53 kg/m3
"CCOC(=O)CC(=O)OCC [diethyl 1,3-propanedioate]",mass density,[1]; 288.15 K,1060.33 ± 0.27 kg/m3
same,mass density,[1]; 298.15 K,1049.6 ± 0.26 kg/m3
same,mass density,[1]; 313.15 K,1033.5 ± 0.23 kg/m3
same,mass density,[1]; 328.15 K,1017.34 ± 0.2 kg/m3
CC(C)O [propan-2-ol],mass density,[1]; 288.15 K,789.342 ± 0.48 kg/m3
same,mass density,[1]; 298.15 K,780.99 ± 0.5 kg/m3
same,mass density,[1]; 313.15 K,767.922 ± 0.52 kg/m3
same,mass density,[1]; 328.15 K,754.001 ± 0.54 kg/m3
CCCCCO [pentan-1-ol],mass density,[1]; 288.15 K,818.801 ± 0.44 kg/m3
same,mass density,[1]; 298.15 K,811.465 ± 0.45 kg/m3
same,mass density,[1]; 313.15 K,800.264 ± 0.47 kg/m3
same,mass density,[1]; 328.15 K,788.737 ± 0.48 kg/m3
CCCCO [butan-1-ol],mass density,[1]; 288.15 K,813.77 ± 0.45 kg/m3
same,mass density,[1]; 298.15 K,806.137 ± 0.46 kg/m3
same,mass density,[1]; 313.15 K,794.488 ± 0.48 kg/m3
same,mass density,[1]; 328.15 K,782.477 ± 0.49 kg/m3
CCCO [propan-1-ol],mass density,[1]; 288.15 K,809.009 ± 0.46 kg/m3
same,mass density,[1]; 298.15 K,800.973 ± 0.47 kg/m3
same,mass density,[1]; 313.15 K,788.687 ± 0.48 kg/m3
same,mass density,[1]; 328.15 K,775.974 ± 0.5 kg/m3
CC(C)CO [2-methyl-1-propanol],mass density,[1]; 288.15 K,805.6 ± 0.46 kg/m3
same,mass density,[1]; 298.15 K,797.916 ± 0.47 kg/m3
same,mass density,[1]; 313.15 K,786.069 ± 0.49 kg/m3
same,mass density,[1]; 328.15 K,773.692 ± 0.51 kg/m3
CCO [ethanol],mass density,[1]; 288.15 K,794.044 ± 0.48 kg/m3
same,mass density,[1]; 298.15 K,785.489 ± 0.49 kg/m3
same,mass density,[1]; 313.15 K,772.42 ± 0.51 kg/m3
same,mass density,[1]; 328.15 K,758.958 ± 0.53 kg/m3
"CCOC(=O)CC(=O)OCC [diethyl 1,3-propanedioate] + CCCCCO",mass density,"[2]; 288.15 K, x1 = 0.0999",849.562 ± 0.4 kg/m3
same,mass density,"[2]; 288.15 K, x1 = 0.1998",878.757 ± 0.36 kg/m3
same,mass density,"[2]; 288.15 K, x1 = 0.2999",906.036 ± 0.32 kg/m3
same,mass density,"[2]; 288.15 K, x1 = 0.3498",919.092 ± 0.3 kg/m3
same,mass density,"[2]; 288.15 K, x1 = 0.3997",931.801 ± 0.28 kg/m3
same,mass density,"[2]; 288.15 K, x1 = 0.4499",944.204 ± 0.26 kg/m3
same,mass density,"[2]; 288.15 K, x1 = 0.4999",956.145 ± 0.24 kg/m3
same,mass density,"[2]; 288.15 K, x1 = 0.5501",967.903 ± 0.23 kg/m3
same,mass density,"[2]; 288.15 K, x1 = 0.599",978.962 ± 0.21 kg/m3
same,mass density,"[2]; 288.15 K, x1 = 0.65",990.137 ± 0.19 kg/m3
same,mass density,"[2]; 288.15 K, x1 = 0.6997",1000.81 ± 0.18 kg/m3
same,mass density,"[2]; 288.15 K, x1 = 0.7997",1021.52 ± 0.21 kg/m3
same,mass density,"[2]; 288.15 K, x1 = 0.9",1041.37 ± 0.25 kg/m3
same,mass density,"[2]; 288.15 K, x1 = 1",1060.33 ± 0.27 kg/m3
same,mass density,"[2]; 298.15 K, x1 = 0.0999",841.661 ± 0.41 kg/m3
same,mass density,"[2]; 298.15 K, x1 = 0.1998",870.343 ± 0.37 kg/m3
same,mass density,"[2]; 298.15 K, x1 = 0.2999",897.187 ± 0.33 kg/m3
same,mass density,"[2]; 298.15 K, x1 = 0.3498",910.054 ± 0.31 kg/m3
same,mass density,"[2]; 298.15 K, x1 = 0.3997",922.576 ± 0.29 kg/m3
same,mass density,"[2]; 298.15 K, x1 = 0.4499",934.797 ± 0.27 kg/m3
same,mass density,"[2]; 298.15 K, x1 = 0.4999",946.568 ± 0.26 kg/m3
same,mass density,"[2]; 298.15 K, x1 = 0.5501",958.185 ± 0.24 kg/m3
same,mass density,"[2]; 298.15 K, x1 = 0.599",969.118 ± 0.22 kg/m3
same,mass density,"[2]; 298.15 K, x1 = 0.65",980.151 ± 0.21 kg/m3
same,mass density,"[2]; 298.15 K, x1 = 0.6997",990.684 ± 0.19 kg/m3
same,mass density,"[2]; 298.15 K, x1 = 0.7997",1011.18 ± 0.2 kg/m3
same,mass density,"[2]; 298.15 K, x1 = 0.9",1030.84 ± 0.23 kg/m3
same,mass density,"[2]; 298.15 K, x1 = 1",1049.6 ± 0.26 kg/m3
same,mass density,"[2]; 313.15 K, x1 = 0.0999",829.624 ± 0.43 kg/m3
same,mass density,"[2]; 313.15 K, x1 = 0.1998",857.553 ± 0.39 kg/m3
same,mass density,"[2]; 313.15 K, x1 = 0.2999",883.774 ± 0.35 kg/m3
same,mass density,"[2]; 313.15 K, x1 = 0.3498",896.347 ± 0.33 kg/m3
same,mass density,"[2]; 313.15 K, x1 = 0.3997",908.607 ± 0.31 kg/m3
same,mass density,"[2]; 313.15 K, x1 = 0.4499",920.565 ± 0.29 kg/m3
same,mass density,"[2]; 313.15 K, x1 = 0.4999",932.101 ± 0.28 kg/m3
same,mass density,"[2]; 313.15 K, x1 = 0.5501",943.506 ± 0.26 kg/m3
same,mass density,"[2]; 313.15 K, x1 = 0.599",954.233 ± 0.24 kg/m3
same,mass density,"[2]; 313.15 K, x1 = 0.65",965.074 ± 0.23 kg/m3
same,mass density,"[2]; 313.15 K, x1 = 0.6997",975.442 ± 0.21 kg/m3
same,mass density,"[2]; 313.15 K, x1 = 0.7997",995.601 ± 0.18 kg/m3
same,mass density,"[2]; 313.15 K, x1 = 0.9",1015 ± 0.2 kg/m3
same,mass density,"[2]; 313.15 K, x1 = 1",1033.5 ± 0.23 kg/m3
same,mass density,"[2]; 328.15 K, x1 = 0.0999",817.296 ± 0.45 kg/m3
same,mass density,"[2]; 328.15 K, x1 = 0.1998",844.519 ± 0.41 kg/m3
same,mass density,"[2]; 328.15 K, x1 = 0.2999",870.127 ± 0.37 kg/m3
same,mass density,"[2]; 328.15 K, x1 = 0.3498",882.426 ± 0.35 kg/m3
same,mass density,"[2]; 328.15 K, x1 = 0.3997",894.428 ± 0.33 kg/m3
same,mass density,"[2]; 328.15 K, x1 = 0.4499",906.141 ± 0.32 kg/m3
same,mass density,"[2]; 328.15 K, x1 = 0.4999",917.475 ± 0.3 kg/m3
same,mass density,"[2]; 328.15 K, x1 = 0.5501",928.648 ± 0.28 kg/m3
same,mass density,"[2]; 328.15 K, x1 = 0.599",939.199 ± 0.27 kg/m3
same,mass density,"[2]; 328.15 K, x1 = 0.65",949.864 ± 0.25 kg/m3
same,mass density,"[2]; 328.15 K, x1 = 0.6997",960.07 ± 0.24 kg/m3
same,mass density,"[2]; 328.15 K, x1 = 0.7997",979.945 ± 0.21 kg/m3
same,mass density,"[2]; 328.15 K, x1 = 0.9",999.065 ± 0.18 kg/m3
same,mass density,"[2]; 328.15 K, x1 = 1",1017.34 ± 0.2 kg/m3
